Literature values as cited in US20110060040A1, “USES OF ACYLOXYALKYL CARBAMATE PRODRUGS OF TRANEXAMIC ACID” (XenoPort, Inc., priority 2009, published 2011).

Tests used:
[1] = human patients, prodrug given orally
[2] = cardiopulmonary bypass surgery, prophylactic administration
[3] = patients undergoing total knee arthroplasty

Row | Compound | oral bioavailability of tranexamic acid [1] | excretion (in vivo) | fraction of administered tranexamic acid metabolized (in vivo) | volume of distribution (in vivo) | oral bioavailability (oral) | reduction of post-operative bleeding [2] | reduction of total blood loss [3]
1 | CCOC(=O)OC(C)OC(=O)[C@H]1CC[C@H](CN)CC1 (relative stereo) [Kabi 2161, 1-(ethoxycarbonyl)oxyethyl trans-4-(aminomethyl)-cyclohexanecarboxylate] | markedly improved |  |  |  |  |  | 
2 | NC[C@H]1CC[C@H](C(=O)O)CC1 [tranexamic acid, trans-4-(aminomethyl)-cyclohexanecarboxylic acid] |  | most is excreted unchanged by the kidney | Only a small fraction | 9 to 12 L | ca. 30% | 30-40% | up to 50%
